{"source": "paper PMC8136953", "about": "(Veterinary Medicine and Science, 2020)", "origin": "cited, not measured here", "parameters": "method as in Park et al., 2006", "conditions": "ref Park et al., 2006; cited from earlier work", "data": [{"molecule": "CS(=O)(=O)c1ccc([C@@H](O)[C@H](N)CF)cc1", "note": "[FLO amine, florfenicol amine]", "values": [{"measurement": "Antibacterial activity", "result": "virtually lacks antibacterial activity"}]}]}
